Test results published in patent publication US20240425529A1, “BORIC ACID DERIVATIVE” (SHOUYAO HOLDINGS (BEIJING) CO., LTD., priority 2021, published 2024).

Assays:
LMP7 = target: T1, LMP7 (Homo sapiens, UniProt P28062); experiment: Enzymatic inhibitory activity on LMP7 (MOLT-4 cell lysate, Ac-ANW-AMC substrate); type: biochemical; details: 1 hour pre-incubation
T1 construct: using MOLT-4 cell lysate as the enzyme source of LMP7; endogenous in cells; host or cells: MOLT-4 (human acute lymphoblastic leukemia cells)
How it was run: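 Enzyme source was MOLT-4 cell lysate (20 ng/μl final) in 20 mM Tris pH 8.0, 0.5 mM EDTA, preincubated 1 h at 23 °C with compound at 9 final concentrations (0–2000 nM). Ac-ANW-AMC ([…]) was then added, 2 h at 23 °C in the dark. AMC fluorescence (ex 345/em 445 nm) gave the IC50.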

β5 = target: T2, β5 (Homo sapiens, UniProt P28074); experiment: Enzymatic inhibitory activity on β5 (HEK-293 cell lysate, Ac-WLA-AMC substrate); type: biochemical; details: 1 hour pre-incubation
T2 construct: using HEK-293 cell lysate as the enzyme source of D5; endogenous in cells; host or cells: HEK-293 (human embryonic kidney cells)
How it was run: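 HEK-293 lysate (25 ng/μl final) preincubated 1 h at 23 °C with compound (9-point, 5-fold dilutions) in 20 mM Tris pH 8.0, 0.5 mM EDTA. Ac-WLA-AMC then added at 20 μM final for 2 h at 23 °C in the dark. AMC fluorescence read at Ex 345/Em 445 nm; IC50 from curve fit.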

| SMILES | IC50 (LMP7) [nM] | IC50 (β5) [nM] |
| --- | --- | --- |
| O=C(Nc1cnccn1)C(=O)N[C@@H](Cc1coc2ccccc12)B(O)O [Ex. 9, (R)-(2-(benzofuran-3-yl)-1-(2-oxo-2-(pyrazin-2-ylamino)acetamido)ethyl) boronic acid] | 9.02 | 97.5 |
| CC1CC(C)(C)OB([C@H](Cc2coc3ccccc23)NC(=O)C(=O)Nc2cnccn2)O1 (some centres unmarked) [Ex. 67] | 1.59 | 38.2 |
| O=C1COB([C@H](Cc2coc3ccccc23)NC(=O)C(=O)Nc2cnccn2)O1 [Ex. 73] | 1.23 | 20.7 |

The next lines start with the values.

| IC50 (LMP7) [nM] | IC50 (β5) [nM] | SMILES |
| --- | --- | --- |
| 9.64 | 283 | O=C(Nc1ccccn1)C(=O)N[C@@H](Cc1coc2ccccc12)B(O)O [Ex. 12] |
| 3.53 | 44.6 | O=C(Nc1nc2ccccc2s1)C(=O)N[C@@H](Cc1coc2ccccc12)B(O)O [Ex. 27, (R)-(2-(benzofuran-3-yl)-1-(2-oxo-2-((benzo[d]thiazol-2-yl)amino)acetamido)ethyl)boronic acid] |
| 4.6 | 62.9 | Cc1cnc(NC(=O)C(=O)N[C@@H](Cc2coc3ccccc23)B(O)O)s1 [Ex. 32, (R)-(2-(benzofuran-3-yl)-1-(2-oxo-2-((5-methylthiazol-2-yl)amino)acetamido)ethyl)boronic acid] |
| 1.51 | 61.1 | O=C(Nc1cc(Cl)ccn1)C(=O)N[C@@H](Cc1coc2ccccc12)B(O)O [Ex. 49, (R)-(2-(benzofuran-3-yl)-1-(2-oxo-2-((4-chloropyridin-2-yl)amino)acetamido)ethyl)boronic acid] |
